The test system of assay [1] is Hepa1–6-Per2-luc hepatocarcinoma tumours. Briefly: Antitumour efficacy in Hepa1–6-bearing C57Bl/6 mice (Experiments 3 and 4). Format: in vivo. The settings on record: for percentage tumour inhibition relative to control: Experiment 4, end. The procedure: Male CD1-Foxn1^nu or C57Bl/6 (B6) mice aged 5–10 weeks (Janvier, Le Genest St Isle, France) were housed in groups of three to four mice per cage in temperature-controlled (23 ± 1°C), ventilated (100 ± 10 l/min), and light-tight chronobiological animal facilities (Eurobioconcept, Bonneuil s/Marne, France). They were synchronized with an alternation of 12 h of light (L) and 12 h of darkness (D) (LD12:12), with light starting at 07:00, and had ad libitum access to food and water throughout all the experiments. In line with convention, onset of light and that of darkness are referred to as Zeitgeber time 0 (ZT0) and ZT12, respectively. After one or more weeks on this regimen and on the day prior to tumour inoculation, both flanks of each B6 mouse were shaved using clippers.
Mouse hepatocarcinoma (Hepa1–6, ATCC® CRL-1830™) was kindly provided by S. Dulong (INSERM U935, Villejuif, France), following their stable transfection with the Per2-luc [pLV7-Bsd-P(Per2)-dLuc] reporter constructs within the C5SYS ERASYSBIO+ project (FP7). Mouse Hepa1–6-Per2-luc cells were cultured in 15-cm Petri dishes until they reached 80% confluency. On the day of tumour inoculation, the cells were trypsinized and resuspended at a concentration of 10^6 cells/100 µl in PBS solution alone (Experiments 1 and 2) or with 1:1 MatriGel™ (Corning, Flintshire, UK) (Experiments 3–5) and kept on ice until injected.
The mice, aged 8–10 weeks, were anesthetized under isoflurane and Hepa1–6-Per2-luc cells were injected subcutaneously in both postero-lateral flanks of each mouse. Mice were then inspected and weighed daily until experiment completion. Tumour sites were inspected daily until tumours became palpable and amenable to daily measurements of perpendicular diameters using callipers. Measurements were always taken at the same circadian time.
Mean daily tumour weight per mouse was calculated as the average volume of the right and left flank tumours according to (L × W^2)/2, where L is the larger and W the smaller perpendicular diameter, and 1 cm^3 corresponds to 1 g. Mice with an estimated tumour weight exceeding 10% of their body weight or those in poor general condition or loosing >15% of their starting body weight were euthanized, in compliance with our Home Office Project Licence specifications approved by the Animals in Science Committee and Animal Welfare and Ethical Review Body.
Experiment 3 aimed at assessing the efficacy and tolerability of the more soluble formulation of FY26⋅Cl in Hepa1–6-bearing C57Bl/6 mice. The mice were randomized to receive vehicle or FY26⋅Cl, at a cumulative dose of 60 mg/kg. Treated mice received ip injections of 20 mg/kg of FY26⋅Cl at ZT6 12, 14, and 17 days after tumour inoculation. Control mice received ip vehicle on the same days.
Experiment 4 aimed at confirming efficacy and optimizing timing and scheduling of the same cumulative dose of 60 mg/kg of FY26⋅Cl. Mice were randomized to receive either vehicle or FY26⋅Cl as four injections of 15 mg/kg at ZT6 or ZT18 on days 11, 14, 17, and 21.
For Experiments 1 and 2, FY26⋅PF6 was diluted in the vehicle, composed of 1% Tween 80 (Sigma-Aldrich, Gillingham, UK), 5% DMSO (Corning, New York, USA) and 94% of 0.9% saline (Prep room, Life Sciences, University of Warwick) under laminar flow. FY26⋅PF6 concentration was confirmed with ICP-MS. For Experiments 3–5, using FY26⋅Cl, a stock solution of 50 mg/ml FY26⋅Cl was prepared in 0.9% saline on the day of injection and diluted as required; the vehicle consisted of 0.9% saline.
Body weight data were expressed as % body weight measured on the first treatment day. Tumour weights for individually treated mice were expressed as % of the median control values, in order to determine % inhibition. Mean and standard error or median and interquartiles were computed for the different treatment groups and experimental conditions, i.e. drug timing and day of assessment. Groups were compared using parametric or non-parametric ANOVAs, respectively.

In the next assay the test system is A2780 cells. Nature of the assay: Apoptosis and ROS induction on exposure in A2780 cells. Format: cell-based. The following applies: data not shown.
For assay [2], the system named is A2780 ovarian cancer cells. Nature of the assay: In vitro growth inhibition assay (SRB), A2780. It counts as cell-based. The following applies: A2780, 24 h exposure, 72 h recovery. As for the experimental part:
Dulbecco's modified Eagle's medium (DMEM) cell culture media, penicillin/streptomycin, foetal bovine serum, L-glutamine, phosphate-buffered saline (PBS) solution, and trypsin/EDTA were all purchased from Thermo Fisher (Loughborough, UK). DMEM was supplemented with 10% foetal bovine serum, 1% penicillin/streptomycin, and 2 mM L-glutamine. Cancer cell lines (A2780 and A549) were purchased from the European Collection of Cell Cultures (Salisbury, UK). Cell cultures were grown in T-75 or T-175 culture flasks as adherent monolayers. The cells were passaged two to three times per week whenever confluence reached 80–90%, using 0.25% trypsin/EDTA. Cell cultures were stored in an incubator at 37°C with a 5% CO2 humidified atmosphere.
Five thousand A2780 or A549 cells were seeded per well in 96-well plates. The cells were pre-incubated in drug-free media at 37°C for 48 h before adding a range of concentrations (0.01–100 µM) of the complexes to be tested. Typically, the complex was dissolved in dimethyl sulfoxide (DMSO) at 2 mM concentration, and then diluted with cell culture medium to give a 100 µM stock solution with 5% (v/v) DMSO. […] Absorbance measurements of the solubilized dye (Thermo Scientific Multiskan FC with SkanIt software 4.1 for Windows using a 470 nm filter) allowed the determination of viable treated cells compared to untreated controls. […]

`CN(C)c1ccc(N=Nc2ccccn2)cc1.Cc1ccc(C(C)C)cc1.[Cl-].[I-].[Os+2]` [FY26⋅Cl]: the “median percentage tumour inhibition relative to controls” value was 76.5% in assay [1] (Experiment 3, at completion, 20 mg/kg ip × 3 at ZT6) and 42.6% in assay [1] (Experiment 4, at completion, 15 mg/kg ip × 4, irrespective of dosing time). Also, in assay [1] (Experiment 3, day 20, 20 mg/kg ip × 3 at ZT6 (control 128.8 mg)), the “median tumour weight, treatment group” value was found to be 30.2 mg. Further, the “median tumour weight, treatment groups ZT6 and ZT18” value in assay [1] (Experiment 4, day 23, 15 mg/kg ip × 4 (control 213.2 mg)) was 122.3 mg. Further, the “percentage tumour inhibition relative to control” value is 12.5% in assay [1] (15 mg/kg ip × 4 at ZT6) and 66% in assay [1] (15 mg/kg ip × 4 at ZT18). For the same compound, the “tumour inhibition as compared to controls” value in assay [1] (hepatocarcinoma-bearing mice, overall statement in discussion) is listed as roughly 60%. In addition, the ROS induction result in the assay with A2780 cells is given as “did induce an increase in ROS”. In addition, the induction of apoptosis result in the assay on A2780 cells is “did not induce apoptosis”. The “difference in anticancer (antiproliferative) activity between X = Cl and X = PF6” value in assay [2] is given as “lack of any statistically significant difference”.
